Measured values reported in patent US10273228B2, “Hepatitis B viral assembly effectors” (Indiana University Research and Technology Corporation, priority 2015, dated 2019).
Where two headings read alike, the source gives them in different places.

Experiments:
[1] = system: HBV viral load, AD38 cells; test: Activity of test compounds on viral production from AD38 cells (viral load by quantitative PCR of the core sequence in supernatant); format: cell-based, Hepatitis B virus; details: Hepatitis B virus, 144 h, 10 μM compound, 6 days at 37° C., vs DMSO control wells, read-out: AD38 Viral Load (CpAM/DMSO %) at 10 μM
Experimental: (§1) AD38 cells were then re-suspended with 10 mL of treatment medium and counted. Wells of a collagen coated 96-well NUNC microtiter plate were seeded at 50,000/well in 180 μL of treatment medium, and 20 μL of either 10% DMSO (Control) or a 10× solution of test compound in 10% DMSO in treatment media was added for a final compound concentration 1, 3, or 10 μM (1.0% final [DMSO]) and plates were incubated for 6 days at 37° C.
Subsequently viral load production was assayed by quantitative PCR of the core sequence. Briefly, 5 μL of clarified supernatant was added to a PCR reaction mixture that contained forward primers HBV-f 5′-CTGTGCCTTGGGTGGCTTT-3′, Reverse primers HBV-r 5′-[…]-3′ and Fluorescent TaqMan™ Probes HBV-probe 5′-FAM/AGCTCCAAA/ZEN/[…]/3IABkFQ-3′ in Quanta Biosciences PerfeCTa® qPCR Toughmix®, and was subsequently on an Applied Biosystems VIIA7 in a final volume of 20 μL. The PCR mixture was incubated at 45° C. for 5 minutes, then 95° C. for 10 min, followed by 40 cycles of 10 seconds at 95° C. and 20 seconds at 60° C. Viral load was quantitated against known standards by using ViiA™ 7 Software. Viral load in the supernatant from wells with treated cells were compared against viral load in supernatant from DMSO control wells (≥3 per plate).

AD38 cells = test: AD38 viability normalized to DMSO control; format: cell-based; details: 10 μM compound, vs DMSO control
Experimental: as §1

Row | Structure (SMILES) | activity at 10 µM ([1]; Table 6) [%] | AD38 Viability Normalized Result (CPAM/DMSO %) at 10 μM (AD38 cells; Table 6) [%] | activity at 10 µM ([1]; Table 9) [%] | AD38 Viability Normalized Result (CPAM/DMSO %) at 10 μM (AD38 cells; Table 9) [%]
1 | Cc1ccc(Nc2cc(C)nc(N3CCN(S(=O)(=O)c4cnc(N)nc4)CC3)n2)cc1 [Compound 1260] | 78 | 98 | – | –
2 | COc1ccc(S(=O)(=O)N2CCN(c3nc(C)cc(Nc4ncc(C)cn4)n3)CC2)cc1 [Compound 1261] | 87 | 98 | – | –
3 | COc1ccc(S(=O)(=O)N2CCN(c3nc(Nc4ccc(C)cc4)cc(OCCO)n3)CC2)cc1 [Compound 1265, 2-((2-(4-((4-methoxyphenyl)sulfonyl)piperazin-1-yl)-6-(p-tolylamino)pyrimidin-4-yl)oxy) ethan-1-ol] | 13 | 102 | – | –
4 | COc1ccc(S(=O)(=O)N2CCN(c3nc(Nc4ccc(C)cc4)cc(N(C)C(C)(C)C)n3)CC2)cc1 [Compound 1273, N^4-(tert-butyl)-2-(4-((4-methoxyphenyl)sulfonyl)piperazin-1-yl)-N^4-methyl-N^6-(p-tolyl) pyrimidine-4,6-diamine] | 16 | 98 | – | –
5 | COc1ccc(S(=O)(=O)N2CCN(c3nc(Nc4ccc(C)cc4)cc(-c4ncc[nH]4)n3)CC2)cc1 [Compound 1274, 6-(1H-imidazol-2-yl)-2-(4-((4-methoxyphenyl)sulfonyl)piperazin-1-yl)-N-(p-tolyl) pyrimidin-4-amine] | 19 | 92 | – | –
6 | COc1ccc(S(=O)(=O)N2CCN(c3nc(Nc4ccc(C)cc4)cc(-n4cnnc4)n3)CC2)cc1 [Compound 1282, 2-(4-((4-methoxyphenyl)sulfonyl)piperazin-1-yl)-N-(p-tolyl)-6-(4H-1,2,4-triazol-4-yl) pyrimidin-4-amine] | 22 | 99 | – | –
7 | Cc1ccc(Nc2cc(C)nc(N3CCN(S(=O)(=O)c4cc(C(=O)Nc5cc(F)c(F)c(F)c5)ccc4F)CC3)n2)cc1 [Compound 1286, 4-fluoro-3-((4-(4-methyl-6-(p-tolylamino)pyrimidin-2-yl)piperazin-1-yl)sulfonyl)-N-(3,4,5-trifluorophenyl) benzamide] | 2 | 86 | – | –
8 | CC(C)c1cc(Oc2ccc(F)cc2)nc(N2CCN(S(=O)(=O)c3cccc(C(F)(F)F)c3)CC2)n1 [Compound 1287] | 77 | 98 | – | –
9 | Cc1ccc(S(=O)(=O)N2CCN(c3nc(Oc4ccc(F)cc4)cc(C(C)C)n3)CC2)cc1 [Compound 1288] | 102 | 105 | – | –
10 | CN(C)c1cc(Oc2ccc(F)cc2)nc(N2CCN(S(=O)(=O)c3cccc(C(F)(F)F)c3)CC2)n1 [Compound 1289] | 55 | 105 | – | –
11 | Cc1ccc(S(=O)(=O)N2CCN(c3nc(Oc4ccc(F)cc4)cc(N(C)C)n3)CC2)cc1 [Compound 1290] | 62 | 105 | – | –
12 | CC(C)c1cc(Oc2ccc(F)cc2)nc(N2CCN(S(=O)(=O)c3ccc(F)cc3)CC2)n1 [Compound 1295] | 84 | 101 | – | –
13 | CC(C)c1cc(Oc2ccc(F)cc2)nc(N2CCN(S(=O)(=O)c3ccc(C(F)(F)F)cc3)CC2)n1 [Compound 1296] | 102 | 103 | – | –
14 | CN(C)c1cc(Oc2ccc(F)cc2)nc(N2CCN(S(=O)(=O)c3ccc(F)cc3)CC2)n1 [Compound 1297] | 59 | 103 | – | –
15 | CN(C)c1cc(Oc2ccc(F)cc2)nc(N2CCN(S(=O)(=O)c3ccc(C(F)(F)F)cc3)CC2)n1 [Compound 1298] | 100 | 97 | – | –
16 | CN(C)c1cc(Oc2ccc(F)cc2)nc(N2CCN(S(=O)(=O)c3ccccc3)CC2)n1 [Compound 1299] | 54 | 112 | – | –
17 | CC(C)c1cc(Oc2ccc(F)cc2)nc(N2CCN(S(=O)(=O)c3ccccc3)CC2)n1 [Compound 1301] | 63 | 102 | – | –
18 | CN(C)c1cc(Nc2ccc(F)cc2)nc(N2CCN(S(=O)(=O)c3ccc(F)cc3)CC2)n1 [Compound 1302] | 52 | 112 | – | –

Row | Structure (SMILES) | activity at 10 µM ([1]; Table 6) [%] | AD38 Viability Normalized Result (CPAM/DMSO %) at 10 μM (AD38 cells; Table 6) [%] | activity at 10 µM ([1]; Table 9) [%] | AD38 Viability Normalized Result (CPAM/DMSO %) at 10 μM (AD38 cells; Table 9) [%]
19 | CN(C)c1cc(Nc2ccc(F)cc2)nc(N2CCN(S(=O)(=O)c3ccc(C(F)(F)F)cc3)CC2)n1 [Compound 1303] | 14 | 35 | – | –
20 | CN(C)c1cc(Nc2ccc(F)cc2)nc(N2CCN(S(=O)(=O)c3ccccc3)CC2)n1 [Compound 1304] | 48 | 113 | – | –
21 | CN(C)c1cc(Nc2ccc(F)cc2)nc(N2CCN(S(=O)(=O)c3cccc(C(F)(F)F)c3)CC2)n1 [Compound 1305] | 4 | 6 | – | –
22 | Cc1ccc(S(=O)(=O)N2CCN(c3nc(Nc4ccc(F)cc4)cc(N(C)C)n3)CC2)cc1 [Compound 1306] | 22 | 103 | – | –
23 | O=S(=O)(c1ccc(F)cc1)N1CCN(c2nc(Oc3ccc(F)cc3)cc(-n3cnnc3)n2)CC1 [Compound 1307] | 84 | 94 | – | –
24 | O=S(=O)(c1ccc(C(F)(F)F)cc1)N1CCN(c2nc(Oc3ccc(F)cc3)cc(-n3cnnc3)n2)CC1 [Compound 1308] | 63 | 88 | – | –
25 | O=S(=O)(c1cccc(C(F)(F)F)c1)N1CCN(c2nc(Oc3ccc(F)cc3)cc(-n3cnnc3)n2)CC1 [Compound 1309] | 26 | 67 | – | –
26 | Cc1ccc(S(=O)(=O)N2CCN(c3nc(Oc4ccc(F)cc4)cc(-n4cnnc4)n3)CC2)cc1 [Compound 1310] | 50 | 81 | – | –
27 | O=S(=O)(c1ccccc1)N1CCN(c2nc(Oc3ccc(F)cc3)cc(-n3cnnc3)n2)CC1 [Compound 1311] | 66 | 86 | – | –
28 | O=S(=O)(c1ccc(F)cc1)N1CCN(c2nc(Nc3ccc(F)cc3)cc(-n3cnnc3)n2)CC1 [Compound 1312] | 31 | 96 | – | –
29 | O=S(=O)(c1cccc(C(F)(F)F)c1)N1CCN(c2nc(Nc3ccc(F)cc3)cc(-n3cnnc3)n2)CC1 [Compound 1313] | 47 | 93 | – | –
30 | O=S(=O)(c1ccccc1)N1CCN(c2nc(Nc3ccc(F)cc3)cc(-n3cnnc3)n2)CC1 [Compound 1314] | 36 | 94 | – | –
31 | O=S(=O)(c1ccc(C(F)(F)F)cc1)N1CCN(c2nc(Nc3ccc(F)cc3)cc(-n3cnnc3)n2)CC1 [Compound 1315] | 89 | 98 | – | –
32 | N#Cc1ccc(Nc2cc(C(F)(F)F)nc(N3CCN(S(=O)(=O)c4ccc(OC(F)(F)F)cc4)CC3)n2)cc1 [Compound 1332] | – | – | 13 | 85
33 | CCOc1ccc(S(=O)(=O)N2CCN(c3nc(Nc4ccc(C#N)cc4)cc(C(F)(F)F)n3)CC2)cc1 [Compound 1333] | – | – | 2 | 85
34 | CCCCOc1ccc(S(=O)(=O)N2CCN(c3nc(Nc4ccc(C#N)cc4)cc(C(F)(F)F)n3)CC2)cc1 [Compound 1334] | – | – | 2 | 102
35 | CCOc1ccc(S(=O)(=O)N2CCN(c3nc(C)cc(Nc4ccc(F)cc4)n3)CC2)cc1 [Compound 1336] | – | – | 59 | 103
36 | CCCCOc1ccc(S(=O)(=O)N2CCN(c3nc(C)cc(Nc4ccc(F)cc4)n3)CC2)cc1 [Compound 1337] | – | – | 34 | 93
